Results from paper PMC5218480 (PLoS ONE, 2017).

System: MV-4-11 cells
Assay: Gene expression microarray analysis (Affymetrix PrimeView) and GSEA
Format: cell-based, human
Parameters: RFU PODN (11730768_x_at) / Fold change /veh PODN (11730768_x_at) / RFU LINC00158 (11744669_a_at) / Fold change /veh LINC00158 (11744669_a_at) / RFU DUSP10 (11751237_a_at) / Fold change /veh DUSP10 (11751237_a_at) / RFU ID3 (11757404_x_at) / Fold change /veh ID3 (11757404_x_at) / RFU PLEKHG5 (11737974_s_at) / Fold change /veh PLEKHG5 (11737974_s_at) / RFU LRRC4B (11730491_at) / Fold change /veh LRRC4B (11730491_at) / RFU GIMAP4 (11747438_a_at) / Fold change /veh GIMAP4 (11747438_a_at) / RFU KRT8 (11758183_x_at) / Fold change /veh KRT8 (11758183_x_at) / RFU CNN1 (11734310_a_at) / Fold change /veh CNN1 (11734310_a_at) / RFU VPS37D (11726825_at) / Fold change /veh VPS37D (11726825_at) / RFU C10orf10 (11716522_x_at) / Fold change /veh C10orf10 (11716522_x_at) / RFU KIR2DL2 /// KIR2DL4 /// KIR2DL5A /// KIR2DL5B /// KIR2DS1 /// KIR2DS2 /// KIR2DS3 /// KIR2DS4 /// KIR3DL3 /// KIR3DL3 /// KIR3DS1 (11738374_at) / Fold change /veh KIR2DL2 /// KIR2DL4 /// KIR2DL5A /// KIR2DL5B /// KIR2DS1 /// KIR2DS2 /// KIR2DS3 /// KIR2DS4 /// KIR3DL3 /// KIR3DL3 /// KIR3DS1 (11738374_at) / RFU C1QL1 (11718748_at) / Fold change /veh C1QL1 (11718748_at) / RFU TMPRSS4 (11747572_a_at) / Fold change /veh TMPRSS4 (11747572_a_at) / RFU HAMP (11756126_x_at) / Fold change /veh HAMP (11756126_x_at) / RFU RNFT2 (11725882_a_at) / Fold change /veh RNFT2 (11725882_a_at) / RFU NR4A2 (11747474_a_at) / Fold change /veh NR4A2 (11747474_a_at) / RFU ABCC12 (11746883_a_at) / Fold change /veh ABCC12 (11746883_a_at) / RFU TMEM136 (11760407_x_at) / Fold change /veh TMEM136 (11760407_x_at) / RFU CLDN22 /// WWC2 (11732394_at) / Fold change /veh CLDN22 /// WWC2 (11732394_at) / RFU HLA-DPB1 (11760878_x_at) / Fold change /veh HLA-DPB1 (11760878_x_at) / RFU SPINT1 (11716480_a_at) / Fold change /veh SPINT1 (11716480_a_at) / RFU GAP43 (11754022_s_at) / Fold change /veh GAP43 (11754022_s_at) / RFU A4GNT (11735810_at) / Fold change /veh A4GNT (11735810_at) / RFU PRB3 (11715151_x_at) / Fold change /veh PRB3 (11715151_x_at) / RFU TUBB4B (11761932_at) / Fold change /veh TUBB4B (11761932_at) / RFU CAPN14 (11732068_a_at) / Fold change /veh CAPN14 (11732068_a_at) / RFU TMCC2 (11721928_a_at) / Fold change /veh TMCC2 (11721928_a_at) / RFU IRGQ (11745062_a_at) / Fold change /veh IRGQ (11745062_a_at) / RFU FAM174B (11720279_a_at) / Fold change /veh FAM174B (11720279_a_at) / RFU TMPRSS4 (11748680_a_at) / Fold change /veh TMPRSS4 (11748680_a_at) / RFU FAM212B (11763350_a_at) / Fold change /veh FAM212B (11763350_a_at) / RFU PLEKHG5 (11743358_a_at) / Fold change /veh PLEKHG5 (11743358_a_at) / RFU ZSCAN30 (11745921_a_at) / Fold change /veh ZSCAN30 (11745921_a_at) / RFU CMKLR1 (11741424_a_at) / Fold change /veh CMKLR1 (11741424_a_at) / RFU LOC101060620 /// MAPK8IP1 (11723275_at) / Fold change /veh LOC101060620 /// MAPK8IP1 (11723275_at) / RFU SPTSSB (11747773_x_at) / Fold change /veh SPTSSB (11747773_x_at) / RFU PRSS12 (11739890_at) / Fold change /veh PRSS12 (11739890_at) / RFU BIN1 (11741810_x_at) / Fold change /veh BIN1 (11741810_x_at) / RFU WNT11 (11732464_a_at) / Fold change /veh WNT11 (11732464_a_at) / RFU C10orf10 (11716521_a_at) / Fold change /veh C10orf10 (11716521_a_at) / RFU C5orf56 (11738089_at) / Fold change /veh C5orf56 (11738089_at) / RFU CYB561 (11721691_x_at) / Fold change /veh CYB561 (11721691_x_at) / RFU ANKRD19P (11752326_a_at) / Fold change /veh ANKRD19P (11752326_a_at) / RFU OR2T12 /// OR2T33 /// OR2T8 (11738714_s_at) / Fold change /veh OR2T12 /// OR2T33 /// OR2T8 (11738714_s_at) / RFU VCAN (11748164_a_at) / Fold change /veh VCAN (11748164_a_at) / RFU JSRP1 (11732532_at) / Fold change /veh JSRP1 (11732532_at) / RFU KRTAP10-11 (11738290_x_at) / Fold change /veh KRTAP10-11 (11738290_x_at) / RFU MYO3A (11730013_a_at) / Fold change /veh MYO3A (11730013_a_at) / RFU EBF3 (11725865_a_at) / Fold change /veh EBF3 (11725865_a_at) / RFU CAMK2N1 (11719241_x_at) / Fold change /veh CAMK2N1 (11719241_x_at) / RFU C5orf56 (11738088_a_at) / Fold change /veh C5orf56 (11738088_a_at) / RFU OLFML3 (11715873_a_at) / Fold change /veh OLFML3 (11715873_a_at) / RFU LOC100653217 /// NTM (11731650_a_at) / Fold change /veh LOC100653217 /// NTM (11731650_a_at) / RFU MAPK11 (11762145_a_at) / Fold change /veh MAPK11 (11762145_a_at) / RFU FIZ1 (11724087_x_at) / Fold change /veh FIZ1 (11724087_x_at) / RFU OASL (11726364_x_at) / Fold change /veh OASL (11726364_x_at) / RFU SOX15 (11748057_x_at) / Fold change /veh SOX15 (11748057_x_at) / RFU CD79A (11719716_a_at) / Fold change /veh CD79A (11719716_a_at) / RFU HIST1H1D (11736915_at) / Fold change /veh HIST1H1D (11736915_at) / RFU CASKIN2 (11723855_a_at) / Fold change /veh CASKIN2 (11723855_a_at) / RFU LOC730098 (11760151_x_at) / Fold change /veh LOC730098 (11760151_x_at) / RFU OR4N2 (11742367_at) / Fold change /veh OR4N2 (11742367_at) / RFU PRRT2 (11749266_a_at) / Fold change /veh PRRT2 (11749266_a_at) / RFU SNX32 (11753110_a_at) / Fold change /veh SNX32 (11753110_a_at) / RFU CDHR5 (11726645_a_at) / Fold change /veh CDHR5 (11726645_a_at) / RFU RCAN1 (11760418_a_at) / Fold change /veh RCAN1 (11760418_a_at) / RFU FAM167A (11723789_a_at) / Fold change /veh FAM167A (11723789_a_at) / RFU FAM26E (11764081_at) / Fold change /veh FAM26E (11764081_at) / RFU ISYNA1 (11749810_s_at) / Fold change /veh ISYNA1 (11749810_s_at) / RFU ACY1 (11761880_at) / Fold change /veh ACY1 (11761880_at) / RFU 11764098_at / Fold change /veh 11764098_at / RFU SAMD14 (11745864_x_at) / Fold change /veh SAMD14 (11745864_x_at) / RFU NPB (11741838_a_at) / Fold change /veh NPB (11741838_a_at) / RFU TMPRSS6 (11731388_a_at) / Fold change /veh TMPRSS6 (11731388_a_at) / RFU KRTAP10-2 (11738614_at) / Fold change /veh KRTAP10-2 (11738614_at) / RFU ARHGAP8 /// PRR5-ARHGAP8 (11727945_x_at) / Fold change /veh ARHGAP8 /// PRR5-ARHGAP8 (11727945_x_at) / RFU KRTAP5-7 /// NADSYN1 (11734609_at) / Fold change /veh KRTAP5-7 /// NADSYN1 (11734609_at) / RFU RASL12 (11751679_a_at) / Fold change /veh RASL12 (11751679_a_at) / RFU CDKN2B (11736163_a_at) / Fold change /veh CDKN2B (11736163_a_at) / RFU PRF1 (11729649_at) / Fold change /veh PRF1 (11729649_at) / RFU, ZNF638 /// ZNF638-IT1 / Fold change vs veh, ZNF638 /// ZNF638-IT1 / RFU, PANK3 / Fold change vs veh, PANK3 / RFU, SH3YL1 / Fold change vs veh, SH3YL1 / RFU, ZEB2 / Fold change vs veh, ZEB2 / RFU, NRIP1 / Fold change vs veh, NRIP1 / RFU, PTTG1IP / Fold change vs veh, PTTG1IP / RFU, CAPN2 / Fold change vs veh, CAPN2 / RFU, MED14 / Fold change vs veh, MED14 / RFU, SNORA58 / Fold change vs veh, SNORA58 / RFU, C1orf63 / Fold change vs veh, C1orf63 / RFU, LRRFIP1 / Fold change vs veh, LRRFIP1 / RFU, NDUFAF7 / Fold change vs veh, NDUFAF7 / RFU, SLC12A2 / Fold change vs veh, SLC12A2 / RFU, IBTK / Fold change vs veh, IBTK / RFU, ESF1 / Fold change vs veh, ESF1 / Fold change vs veh, TMEM50B / RFU, TAOK1 / Fold change vs veh, TAOK1 / RFU, ACBD3 / Fold change vs veh, ACBD3 / RFU, TMA16 / Fold change vs veh, TMA16 / RFU, RWDD3 / Fold change vs veh, RWDD3 / RFU, BCAT1 / Fold change vs veh, BCAT1 / RFU, EDEM3 / Fold change vs veh, EDEM3 / RFU, TMEM33 / Fold change vs veh, TMEM33 / RFU, WDR75 / Fold change vs veh, WDR75 / RFU, AHCTF1 / Fold change vs veh, AHCTF1 / RFU, TFRC / Fold change vs veh, TFRC / RFU, ZDHHC17 / Fold change vs veh, ZDHHC17 / RFU, NOM1 / Fold change vs veh, NOM1 / RFU, ARL8B / Fold change vs veh, ARL8B / RFU, ZBTB11 / Fold change vs veh, ZBTB11 / RFU, TAMM41 / Fold change vs veh, TAMM41 / RFU, KIAA1704 /// LOC100996395 / Fold change vs veh, KIAA1704 /// LOC100996395 / RFU, ING1 / Fold change vs veh, ING1 / RFU, TRMT61B / Fold change vs veh, TRMT61B / RFU, FUBP3 / Fold change vs veh, FUBP3 / RFU, TP53 / Fold change vs veh, TP53 / RFU, TNKS2 / Fold change vs veh, TNKS2 / RFU, ZFP14 / Fold change vs veh, ZFP14 / RFU, ACTR2 / Fold change vs veh, ACTR2 / RFU, PPP3R1 / Fold change vs veh, PPP3R1 / RFU, PIK3R1 / Fold change vs veh, PIK3R1 / RFU, HNRNPA1 / Fold change vs veh, HNRNPA1 / RFU, RNF170 / Fold change vs veh, RNF170 / RFU, ZNF28 / Fold change vs veh, ZNF28 / RFU, RNGTT / Fold change vs veh, RNGTT / RFU, OGT / Fold change vs veh, OGT / RFU, BRD1 / Fold change vs veh, BRD1 / RFU, MARS / Fold change vs veh, MARS / RFU, ZNF655 / Fold change vs veh, ZNF655 / RFU, FAHD1 / Fold change vs veh, FAHD1 / RFU, BDP1 / Fold change vs veh, BDP1 / RFU, LRRCC1 / Fold change vs veh, LRRCC1 / RFU, ARID1A / Fold change vs veh, ARID1A / RFU, ZNF146 / Fold change vs veh, ZNF146 / RFU, ZNF330 / Fold change vs veh, ZNF330 / RFU, GPN3 / Fold change vs veh, GPN3 / RFU, C9orf123 / Fold change vs veh, C9orf123 / RFU, N4BP2L2 / Fold change vs veh, N4BP2L2 / RFU, ARFIP1 / Fold change vs veh, ARFIP1 / RFU, FAM179B / Fold change vs veh, FAM179B / RFU, BCL10 / Fold change vs veh, BCL10 / RFU, UHRF1BP1L / Fold change vs veh, UHRF1BP1L / RFU, BET1 / Fold change vs veh, BET1 / RFU, CNOT2 / Fold change vs veh, CNOT2 / RFU, ZNF268 / Fold change vs veh, ZNF268 / Fold change vs veh, ZNF507 / RFU, DGCR2 / Fold change vs veh, DGCR2 / RFU, WDSUB1 / Fold change vs veh, WDSUB1 / Fold change vs veh, HSP90B1 /// MIR3652 / RFU, ADSS / Fold change vs veh, ADSS / RFU, GK / Fold change vs veh, GK / RFU, ZNF148 / Fold change vs veh, ZNF148 / RFU, TAF9 / Fold change vs veh, TAF9 / RFU, SLC1A5 / Fold change vs veh, SLC1A5 / RFU, SLMO2 / Fold change vs veh, SLMO2 / RFU, ABCC4 / Fold change vs veh, ABCC4 / RFU, LOC101060439 /// RAP1B / Fold change vs veh, LOC101060439 /// RAP1B / RFU, RFX7 / Fold change vs veh, RFX7 / RFU, GTPBP10 / Fold change vs veh, GTPBP10 / RFU, CNEP1R1 / Fold change vs veh, CNEP1R1 / RFU, BIVM-ERCC5 /// ERCC5 / Fold change vs veh, BIVM-ERCC5 /// ERCC5 / RFU, ILF3 / Fold change vs veh, ILF3 / RFU 11762660_at / Fold change /veh 11762660_at / RFU VCAN (11757783_s_at) / Fold change /veh VCAN (11757783_s_at) / RFU DDX43 (11728927_at) / Fold change /veh DDX43 (11728927_at) / RFU KRT8 (11758188_x_at) / Fold change /veh KRT8 (11758188_x_at) / RFU NKD1 (11759106_at) / Fold change /veh NKD1 (11759106_at) / RFU SRD5A1 (11742802_a_at) / Fold change /veh SRD5A1 (11742802_a_at) / RFU TPSAB1 /// TPSB2 (11721975_s_at) / Fold change /veh TPSAB1 /// TPSB2 (11721975_s_at) / RFU GSTM3 (11746129_a_at) / Fold change /veh GSTM3 (11746129_a_at) / RFU IL23R (11737362_x_at) / Fold change /veh IL23R (11737362_x_at) / RFU TMEM51 (11727254_a_at) / Fold change /veh TMEM51 (11727254_a_at) / RFU PIWIL2 (11732686_x_at) / Fold change /veh PIWIL2 (11732686_x_at) / RFU ORM1 (11744905_x_at) / Fold change /veh ORM1 (11744905_x_at) / RFU CCDC152 (11743942_at) / Fold change /veh CCDC152 (11743942_at) / RFU ECM1 (11717891_a_at) / Fold change /veh ECM1 (11717891_a_at) / RFU IL23R (11748794_a_at) / Fold change /veh IL23R (11748794_a_at) / RFU TNFAIP8L3 (11732012_x_at) / Fold change /veh TNFAIP8L3 (11732012_x_at) / RFU MBOAT4 (11741988_at) / Fold change /veh MBOAT4 (11741988_at) / RFU 11764193_at / Fold change /veh 11764193_at / RFU TMEM53 (11763286_at) / Fold change /veh TMEM53 (11763286_at) / RFU MAGEB2 (11727129_at) / Fold change /veh MAGEB2 (11727129_at) / RFU TMEM200A (11744735_a_at) / Fold change /veh TMEM200A (11744735_a_at) / RFU CCDC152 (11751479_a_at) / Fold change /veh CCDC152 (11751479_a_at) / RFU FAM211A (11726209_a_at) / Fold change /veh FAM211A (11726209_a_at) / RFU RGS16 (11746705_a_at) / Fold change /veh RGS16 (11746705_a_at) / RFU VCAN (11755009_s_at) / Fold change /veh VCAN (11755009_s_at) / RFU RHOB (11743442_s_at) / Fold change /veh RHOB (11743442_s_at) / RFU RGS16 (11720943_a_at) / Fold change /veh RGS16 (11720943_a_at) / RFU RGS16 (11720944_at) / Fold change /veh RGS16 (11720944_at) / RFU, VPS4B / Fold change vs veh, VPS4B / RFU, CREB1 / Fold change vs veh, CREB1 / RFU, DNAJC13 / Fold change vs veh, DNAJC13 / RFU, GNAQ / Fold change vs veh, GNAQ / RFU, CDK5R1 / Fold change vs veh, CDK5R1 / RFU, ZRANB3 / Fold change vs veh, ZRANB3 / RFU, CUL4A / Fold change vs veh, CUL4A / RFU, CCNY / Fold change vs veh, CCNY / RFU, UFL1 / Fold change vs veh, UFL1 / RFU, COG3 / Fold change vs veh, COG3 / RFU, DIAPH2 / Fold change vs veh, DIAPH2 / RFU, SKA2 / Fold change vs veh, SKA2 / RFU, AFF3 / Fold change vs veh, AFF3 / RFU, LMF1 / Fold change vs veh, LMF1 / RFU, IPO11 / Fold change vs veh, IPO11 / RFU, DFFB / Fold change vs veh, DFFB / RFU, FOXP1 / Fold change vs veh, FOXP1 / RFU, CARD8 / Fold change vs veh, CARD8 / RFU, STRN3 / Fold change vs veh, STRN3 / RFU, ADK / Fold change vs veh, ADK / RFU, RASSF2 / Fold change vs veh, RASSF2 / RFU, WIPF1 / Fold change vs veh, WIPF1 / RFU, LARP1B / Fold change vs veh, LARP1B / RFU, RASA1 / Fold change vs veh, RASA1 / RFU, RB1 / Fold change vs veh, RB1 / RFU, PPFIA1 / Fold change vs veh, PPFIA1 / RFU, MAT2A / Fold change vs veh, MAT2A / RFU, CCT5 / Fold change vs veh, CCT5 / RFU, WDR92 / Fold change vs veh, WDR92 / RFU, CUX1 / Fold change vs veh, CUX1 / RFU, TTC7A / Fold change vs veh, TTC7A / RFU, TMEM135 / Fold change vs veh, TMEM135 / RFU, DEPTOR / Fold change vs veh, DEPTOR / RFU, CPM / Fold change vs veh, CPM / RFU, DNAJB6 / Fold change vs veh, DNAJB6 / RFU, CACNA2D3 / Fold change vs veh, CACNA2D3 / RFU, DTX4 / Fold change vs veh, DTX4 / RFU, TFCP2 / Fold change vs veh, TFCP2 / RFU, GMCL1 /// GMCL1P1 / Fold change vs veh, GMCL1 /// GMCL1P1 / RFU, AEBP2 / Fold change vs veh, AEBP2 / RFU, SNHG1 /// SNORD22 /// SNORD25 /// SNORD26 /// SNORD27 /// SNORD28 /// SNORD29 /// SNORD31 / Fold change vs veh, SNHG1 /// SNORD22 /// SNORD25 /// SNORD26 /// SNORD27 /// SNORD28 /// SNORD29 /// SNORD31 / Fold change (Aza/veh), C12orf56 (ProbeSet 11735607_a_at) / Fold change (ACY-1035/veh), C12orf56 (ProbeSet 11735607_a_at) / Fold change (Aza/veh), FGFR1OP (ProbeSet 11751329_s_at) / Fold change (ACY-1035/veh), FGFR1OP (ProbeSet 11751329_s_at) / Fold change (Aza/veh), VPS36 (ProbeSet 11739960_a_at) / Fold change (ACY-1035/veh), VPS36 (ProbeSet 11739960_a_at) / RFU SYPL1 (11715823_x_at) / Fold change /veh SYPL1 (11715823_x_at) / RFU IGFBP7 (11715501_s_at) / Fold change /veh IGFBP7 (11715501_s_at) / RFU REEP3 (11722064_at) / Fold change /veh REEP3 (11722064_at) / RFU IGLL1 (11728026_x_at) / Fold change /veh IGLL1 (11728026_x_at): dose or concentration left out as unconfirmed
Conditions: ProbeSet 11759095_at; LIST D

SMILES: Nc1ncn([C@@H]2O[C@H](CO)[C@@H](O)[C@H]2O)c(=O)n1 [azacitidine]
- Fold change vs veh, GNAQ: 0.81
